According to US20220125765A1, “PHARMACEUTICAL COMBINATIONS COMPRISING MEBENDAZOLE AND A STRONG OR MODERATE CYP1A2 INHIBITOR” (ZEPHAPHARM LTD, priority 2019, published 2022):
Like-named read-outs stand apart in the source and are kept apart here.

How the values were obtained:
CYP2C9 = CYP2C9 (Homo sapiens, UniProt P11712); assay: Cytochrome P450 reaction phenotyping, recombinant CYP2C9 (Bactosomes)
Procedure: Incubations were also performed using control Bactosomes™ (no P450 enzymes present) to reveal any non-enzymatic degradation. Control compounds known to be metabolised specifically by each P450 isoform were included. All incubations were performed singularly for each test compound.
Incubations were also performed using control Bactosomes™ (no P450 enzymes present) to reveal any non-enzymatic degradation. Control compounds known to be metabolised specifically by each P450 isoform were included. All incubations were performed singularly for each test compound. […] The reactions were stopped by transferring an aliquot of incubate to quench solvent at the appropriate time points, in a 1:3 ratio. The termination plates were centrifuged at 3,000 rpm for 20 min at 4° C. to precipitate the protein.

[1] = test system: 8 neuroblastoma and 13 sarcoma derived cell lines; assay: 2D monolayer CellTiter-Blue viability, panel geometric mean (Example 9); type: cell-based; conditions: 21 cell lines, 72 hours
Procedure: (§1) Seventeen compounds, including mebendazole (Batch no. […] Efficacy of compounds was assessed using CellTiter-Blue® Cell Viability Assay. Anti-tumor activity is expressed as absolute and relative IC50 and IC70 values, calculated by non-linear regression analysis.

SXFO U-2-OS = assay: 2D monolayer CellTiter-Blue viability, osteosarcoma U-2-OS; type: cell-based; conditions: 72 h
Procedure: as §1

SXFS HT-1080 = assay: 2D monolayer CellTiter-Blue viability, soft tissue sarcoma HT-1080; type: cell-based; conditions: 72 h
Procedure: Seventeen compounds, including mebendazole (Batch no. MKCC1885, Sigma-Aldrich, 100% pure), were tested in vitro across a panel of 8 selected neuroblastoma (NBXF) and 13 selected sarcoma (SXF) derived cell lines by using a 2D monolayer assay. Compounds were tested at […] in half-log increments up to 100 μM and cells were treated for a period of 72 hours. Efficacy of compounds was assessed using CellTiter-Blue® Cell Viability Assay. Anti-tumor activity is expressed as absolute and relative IC50 and IC70 values, calculated by non-linear regression analysis.

SXFS U-2197 = assay: 2D monolayer CellTiter-Blue viability, soft tissue sarcoma U-2197; type: cell-based; conditions: 72 h
Procedure: as §1

OVXF 899L = assay: 2D monolayer CellTiter-Blue viability, ovarian cancer OVXF 899L (P-gp expressing, multidrug resistant); type: cell-based; conditions: for Test/Control (%) at Drug Concentration: 72 h
Procedure: Mebendazole was tested in vitro across a panel of 12 tumor cell lines of ovarian and renal cancer by using a 2D monolayer assay. […] OVXF 899L and RXF 486L are P-gp expressing, multidrug resistant cell lines.
Anti-tumor activity is expressed as absolute and relative IC50/70 values, calculated by 4-parameter non-linear curve fit.

Sequence of CYP2C9 (P11712 whole entry, canonical isoform): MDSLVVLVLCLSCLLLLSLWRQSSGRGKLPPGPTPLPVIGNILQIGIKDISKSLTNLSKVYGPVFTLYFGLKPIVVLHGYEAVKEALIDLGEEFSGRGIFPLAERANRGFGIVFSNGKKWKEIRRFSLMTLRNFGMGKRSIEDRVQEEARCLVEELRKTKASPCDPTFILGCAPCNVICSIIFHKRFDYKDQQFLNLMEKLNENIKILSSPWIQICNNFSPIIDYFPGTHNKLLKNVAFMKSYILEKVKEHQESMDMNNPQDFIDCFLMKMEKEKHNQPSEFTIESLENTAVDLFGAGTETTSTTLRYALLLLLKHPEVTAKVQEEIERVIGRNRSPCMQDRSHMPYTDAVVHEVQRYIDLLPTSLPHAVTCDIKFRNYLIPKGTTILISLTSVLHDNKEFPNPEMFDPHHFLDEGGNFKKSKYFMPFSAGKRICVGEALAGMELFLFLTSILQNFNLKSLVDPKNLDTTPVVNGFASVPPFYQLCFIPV

Structure (SMILES): COC(=O)Nc1nc2ccc(C(=O)c3ccccc3)cc2[nH]1 [Mebendazole, methyl N-(6-benzoyl-1H-benzimidazol-2-yl)carbamate]
- Compound Remaining (% of 0 min) (CYP2C9; CYP2C9, 5 μM, 0 min): 100 % of 0 min
- Compound Remaining (% of 0 min) (CYP2C9; CYP2C9, 5 μM, 5 min): 108 % of 0 min
- Compound Remaining (% of 0 min) (CYP2C9; CYP2C9, 5 μM, 15 min): 108 % of 0 min
- Compound Remaining (% of 0 min) (CYP2C9; CYP2C9, 5 μM, 30 min): 109 % of 0 min
- Compound Remaining (% of 0 min) (CYP2C9; CYP2C9, 5 μM, 45 min): 105 % of 0 min
- % compound remaining (CYP2C9; CYP2C9, 5 μM, time not stated): > 87.5%
- t1/2 (CYP2C9; CYP2C9, substrate 5 μM): >2.25 h
- half-life at 5 μM (CYP2C9; human, recombinant CYP2C9 (Bactosomes), pH 7.4): > 2.25 h
- IC50 ([1]; read-out: absolute geometric mean IC50): 291 nM
- IC50 ([1]; read-out: relative geometric mean IC50): 280 nM
- Test/Control (%) at Drug Concentration (SXFO U-2-OS; 1.0E+00 μM): 38%
- Test/Control (%) at Drug Concentration (SXFO U-2-OS; 1.0E+01 μM): 13%
- Test/Control (%) at Drug Concentration (SXFO U-2-OS; 1.0E+02 μM): 6%
- Test/Control (%) at Drug Concentration (SXFO U-2-OS; 1.0E−01 μM): 82%
- Test/Control (%) at Drug Concentration (SXFO U-2-OS; 1.0E−02 μM): 89%
- Test/Control (%) at Drug Concentration (SXFO U-2-OS; 3.2E+00 μM): 19%
- Test/Control (%) at Drug Concentration (SXFO U-2-OS; 3.2E+01 μM): 11%
- Test/Control (%) at Drug Concentration (SXFO U-2-OS; 3.2E−01 μM): 54%
- Test/Control (%) at Drug Concentration (SXFO U-2-OS; 3.2E−02 μM): 86%
- Test/Control (%) at Drug Concentration (SXFO U-2-OS; 3.2E−03 μM): 85%
- Test/Control (%) at Drug Concentration (SXFS HT-1080; HT-1080, 1.0E+00 μM): 7%
- Test/Control (%) at Drug Concentration (SXFS HT-1080; HT-1080, 1.0E+01 μM): 4%
- Test/Control (%) at Drug Concentration (SXFS HT-1080; HT-1080, 1.0E+02 μM): 1%
- Test/Control (%) at Drug Concentration (SXFS HT-1080; HT-1080, 1.0E−01 μM): 79%
- Test/Control (%) at Drug Concentration (SXFS HT-1080; HT-1080, 1.0E−02 μM): 89%
- Test/Control (%) at Drug Concentration (SXFS HT-1080; HT-1080, 3.2E+00 μM): 4%
- Test/Control (%) at Drug Concentration (SXFS HT-1080; HT-1080, 3.2E+01 μM): 3%
- Test/Control (%) at Drug Concentration (SXFS HT-1080; HT-1080, 3.2E−01 μM): 35%
- Test/Control (%) at Drug Concentration (SXFS HT-1080; HT-1080, 3.2E−02 μM): 79%
- Test/Control (%) at Drug Concentration (SXFS HT-1080; HT-1080, 3.2E−03 μM): 90%
- Test/Control (%) at Drug Concentration (SXFS U-2197; U-2197, 1.0E+00 μM): 42%
- Test/Control (%) at Drug Concentration (SXFS U-2197; U-2197, 1.0E+01 μM): 37%
- Test/Control (%) at Drug Concentration (SXFS U-2197; U-2197, 1.0E+02 μM): 18%
- Test/Control (%) at Drug Concentration (SXFS U-2197; U-2197, 1.0E−01 μM): 91%
- Test/Control (%) at Drug Concentration (SXFS U-2197; U-2197, 1.0E−02 μM): 93%
- Test/Control (%) at Drug Concentration (SXFS U-2197; U-2197, 3.2E+00 μM): 44%
- Test/Control (%) at Drug Concentration (SXFS U-2197; U-2197, 3.2E+01 μM): 36%
- Test/Control (%) at Drug Concentration (SXFS U-2197; U-2197, 3.2E−01 μM): 79%
- Test/Control (%) at Drug Concentration (SXFS U-2197; U-2197, 3.2E−02 μM): 93%
- Test/Control (%) at Drug Concentration (SXFS U-2197; U-2197, 3.2E−03 μM): 93%
- Test/Control (%) at Drug Concentration (OVXF 899L; OVXF 899, 1.0E+00 μM): 54%
- Test/Control (%) at Drug Concentration (OVXF 899L; OVXF 899, 1.0E−01 μM): 92%
- Test/Control (%) at Drug Concentration (OVXF 899L; OVXF 899, 1.0E−02 μM): 97%
- Test/Control (%) at Drug Concentration (OVXF 899L; OVXF 899, 1.0E−03 μM): 100%
- Test/Control (%) at Drug Concentration (OVXF 899L; OVXF 899, 1.0E−04 μM): 88%
- Test/Control (%) at Drug Concentration (OVXF 899L; OVXF 899, 3.2E+00 μM): 65%
- Test/Control (%) at Drug Concentration (OVXF 899L; OVXF 899, 3.2E−01 μM): 94%
- Test/Control (%) at Drug Concentration (OVXF 899L; OVXF 899, 3.2E−02 μM): 94%
- Test/Control (%) at Drug Concentration (OVXF 899L; OVXF 899, 3.2E−03 μM): 97%
- Test/Control (%) at Drug Concentration (OVXF 899L; OVXF 899, 3.2E−04 μM): 98%
- Abs. IC70 (OVXF 899L; OVXF 899, 72 h): >3200 nM
- Rel. IC70 (OVXF 899L; OVXF 899, 72 h): 425 nM
